In US7943770B2, “Fused quinoline derivative and use thereof” (Takeda Pharmaceutical Company Limited, priority 2004, dated 2011):

Biological target: T1, hNK2 receptor (Homo sapiens, UniProt P21452)
T1 construct: host or cells: CHO cells
T1 sequence (P21452 1-398): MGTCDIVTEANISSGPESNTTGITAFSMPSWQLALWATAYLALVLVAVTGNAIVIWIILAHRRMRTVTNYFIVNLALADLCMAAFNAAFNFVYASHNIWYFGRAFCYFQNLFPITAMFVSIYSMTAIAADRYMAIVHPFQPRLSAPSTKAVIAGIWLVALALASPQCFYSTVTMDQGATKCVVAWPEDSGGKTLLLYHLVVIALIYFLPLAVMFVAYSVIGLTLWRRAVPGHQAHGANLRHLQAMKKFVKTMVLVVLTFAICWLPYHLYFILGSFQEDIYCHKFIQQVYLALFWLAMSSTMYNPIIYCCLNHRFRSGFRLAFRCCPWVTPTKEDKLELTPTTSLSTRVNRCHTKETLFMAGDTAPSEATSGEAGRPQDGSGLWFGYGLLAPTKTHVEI
Assay: Radio-ligand ([125I]-NKA) receptor binding inhibitory activity using membrane fraction of hNK2 receptor-expressing CHO cell
Settings: membrane fraction of hNK2 receptor-expressing CHO cells, 25° C., 30 min
Outline: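 Membranes from hNK2-expressing CHO cells (20 μg/mL suspension) incubated with test compound and [125I]-NKA ([…] solution as added) in Tris-HCl pH 7.4 with BSA, protease inhibitors, 3 mM MnCl2, 25 °C, 30 min. Bound radioactivity by GF/C filtration and scintillation; inhibition expressed relative to specific binding (total minus unlabeled-NKA non-specific).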

| IC50 [nM] | SMILES |
| --- | --- |
| < 1 | O=C(N[C@@H]1CCCC[C@@H]1C(=O)N1CC[C@@H]2[C@H](c3ncc[nH]3)Nc3ccccc3[C@@H]21)c1ccc(Cl)cc1 [Example 303, 4-Chloro-N-((1R,2S)-2-{[(3aR,4R,9bR)-4-(1H-imidazol-2-yl)-2,3,3a,4,5,9b-hexahydro-1H-pyrrolo[3,2-c]quinolin-1-yl]carbonyl}cyclohexyl)benzamide] |
| < 10 | NC(=O)c1ccc(C(=O)N[C@@H]2CCCC[C@@H]2C(=O)N2CC[C@@H]3[C@H](c4ncc[nH]4)Nc4ccccc4[C@@H]32)cc1 [Example 306, N-((1R,2S)-2-{[(3aR,4R,9bR)-4-(1H-Imidazol-2-yl)-2,3,3a,4,5,9b-hexahydro-1H-pyrrolo[3,2-c]quinolin-1-yl]carbonyl}cyclohexyl)terephthalamide] |
| < 1 | N#Cc1cccc(C(=O)N[C@@H]2CCCC[C@@H]2C(=O)N2CC[C@@H]3[C@H](c4ncc[nH]4)Nc4ccccc4[C@@H]32)c1 [Example 308, 3-Cyano-N-((1R,2S)-2-{[(3aR,4R,9bR)-4-(1H-imidazol-2-yl)-2,3,3a,4,5,9b-hexahydro-1H-pyrrolo[3,2-c]quinolin-1-yl]carbonyl}cyclohexyl)benzamide] |
| < 1 | Cc1cc(C(=O)N[C@@H]2CCCC[C@@H]2C(=O)N2CC[C@@H]3[C@H](c4ncc[nH]4)Nc4ccccc4[C@@H]32)ccc1C#N [Example 309, 4-Cyano-N-((1R,2S)-2-{[(3aR,4R,9bR)-4-(1H-imidazol-2-yl)-2,3,3a,4,5,9b-hexahydro-1H-pyrrolo[3,2-c]quinolin-1-yl]carbonyl}cyclohexyl)-3-methylbenzamide] |
| < 1 | O=C(N[C@@H]1CCCC[C@@H]1C(=O)N1CC[C@@H]2[C@H](c3ncc[nH]3)Nc3ccccc3[C@@H]21)c1ccc2[nH]nnc2c1 [Example 310, N-((1R,2S)-2-{[(3aR,4R,9bR)-4-(1H-Imidazol-2-yl)-2,3,3a,4,5,9b-hexahydro-1H-pyrrolo[3,2-c]quinolin-1-yl]carbonyl}cyclohexyl)-1H-1,2,3-benzotriazole-5-carboxamide] |

Continued, compound first:

| SMILES | IC50 [nM] |
| --- | --- |
| N#Cc1ccc(C(=O)N[C@@H]2CCCC[C@@H]2C(=O)N2CC[C@@H]3[C@H](c4ncc[nH]4)Nc4ccccc4[C@@H]32)cc1 [Example 304, 4-cyano-N-((1R,2S)-2-{[(3aR,4R,9bR)-4-(1H-imidazol-2-yl)-2,3,3a,4,5,9b-hexahydro-1H-pyrrolo[3,2-c]quinolin-1-yl]carbonyl}cyclohexyl)benzamide] | < 1 |
| O=C(N[C@@H]1CCCC[C@@H]1C(=O)N1CC[C@@H]2[C@H](c3ncc[nH]3)Nc3ccccc3[C@@H]21)c1cccc(C(F)(F)F)c1 [Example 305, N-((1R,2S)-2-{[(3aR,4R,9bR)-4-(1H-Imidazol-2-yl)-2,3,3a,4,5,9b-hexahydro-1H-pyrrolo[3,2-c]quinolin-1-yl]carbonyl}cyclohexyl)-3-(trifluoromethyl)benzamide] | < 1 |
| N#Cc1ccc(NC(=O)N[C@@H]2CCCC[C@@H]2C(=O)N2CC[C@@H]3[C@H](c4ncc[nH]4)Nc4ccccc4[C@@H]32)cc1 [Example 307, N-(4-Cyanophenyl)-N′-((1R,2S)-2-{[(3aR,4R,9bR)-4-(1H-imidazol-2-yl)-2,3,3a,4,5,9b-hexahydro-1H-pyrrolo[3,2-c]quinolin-1-yl]carbonyl}cyclohexyl)urea] | < 1 |
| O=C(N[C@@H]1CCCC[C@@H]1C(=O)N1CC[C@H]2[C@@H](c3ncc[nH]3)Nc3ccccc3[C@H]21)c1ccccc1 [Example 321, N-((1R,2S)-2-{[(3aS,4S,9bS)-4-(1H-Imidazol-2-yl)-2,3,3a,4,5,9b-hexahydro-1H-pyrrolo[3,2-c]quinolin-1-yl]carbonyl}cyclohexyl)benzamide] | < 10 |
| N#Cc1ccc(C(=O)N[C@@H]2CCCC[C@@H]2C(=O)N2CC[C@@H]3[C@H](c4ccc[nH]4)Nc4ccccc4[C@@H]32)cc1 [Example 322, 4-Cyano-N-((1R,2S)-2-{[(3aR,4R,9bR)-4-(1H-pyrrol-2-yl)-2,3,3a,4,5,9b-hexahydro-1H-pyrrolo[3,2-c]quinolin-1-yl]carbonyl}cyclohexyl)benzamide] | < 1 |
| NC(=O)c1ccc(C(=O)N[C@@H]2CCCC[C@@H]2C(=O)N2CC[C@@H]3[C@H](c4ccc[nH]4)Nc4ccccc4[C@@H]32)cc1 [Example 323, N-((1R,2S)-2-{[(3aR,4R,9bR)-4-(1H-Pyrrol-2-yl)-2,3,3a,4,5,9b-hexahydro-1H-pyrrolo[3,2-c]quinolin-1-yl]carbonyl}cyclohexyl)terephthalamide] | < 1 |
| O=C(Nc1ccccc1)N[C@@H]1CCCC[C@@H]1C(=O)N1CCc2c(-c3ccccc3)nc3ccccc3c21 [Example 326, N-Phenyl-N′-{(1R,2S)-2-[(4-phenyl-2,3-dihydro-1H-pyrrolo[3,2-c]quinolin-1-yl)carbonyl]cyclohexyl}urea] | < 10 |

Biological target: T1, hNK2 receptor
Assay: Antagonistic activity determined by intracellular calcium concentration (FLIPR) using Neurokinin A and hNK2 receptor-expressing CHO cell
Format: cell-based
Settings: test compound 1 μM; increase in intracellular calcium due to Neurokinin A, hNK2 receptor-expressing CHO cells
Procedure: hNK2 receptor-expressing CHO cells were seeded on a 96 well plate at 3×10^4 cell/well and cultured for 24 hrs. Then the medium was aspirated and 20 mM HEPES (pH 7.4)—HBSS buffer (50 μL) was added. Thereto was added prepared 1× Reagent buffer (50 μL, FLIPR Calcium Assay Kit: Molecular Devices Corporation, Japan) and the mixture was reacted at 37° C. for 1 hr. A test compound diluted with 20 mM HEPES (pH 7.4)—HBSS buffer (50 μL, containing 0.4% dimethyl sulfoxide) was added to examine antagonistic activity of the test compound. Thereafter, 20 nM Neurokinin A solution (50 μL) was added, and change in the intracellular calcium concentration were measured by FLIPR (Molecular Devices Corporation, Japan).

| Assay of Antagonistic activity Inhibitory rate (%) | SMILES |
| --- | --- |
| 45 | O=C(N[C@@H]1CCCC[C@@H]1C(=O)N1CC[C@@H]2[C@H](c3ccccc3)Nc3ccccc3[C@@H]21)c1ccccc1 [Compound of Example 1] |

Same assay, conditions: test compound 10 μM; increase in intracellular calcium due to Neurokinin A, hNK2 receptor-expressing CHO cells

| Assay of Antagonistic activity Inhibitory rate (%) | SMILES |
| --- | --- |
| 97 | O=C(N[C@@H]1CCCC[C@@H]1C(=O)N1CC[C@@H]2[C@H](c3ccccc3)Nc3ccccc3[C@@H]21)c1ccccc1 [Compound of Example 1] |
